Patent US10167262B2, “Herbicidal substituted 3-arylpyrazoles” (FMC CORPORATION, priority 2014, dated 2019)

How the values were obtained:
Format in all cases: in vivo
[1] = system: barnyardgrass (Echinochloa crus-galli); test: Test A pre-/postemergence greenhouse herbicide test, visual injury rating 0-100
Method in brief: (§1)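 Visual injury versus untreated controls, scored about 10 days after treatment on a 0 to 100 scale (0 = no effect, 100 = complete control). Applications were preemergence directed soil spray plus postemergence spray at one- to two-leaf stage, 2 to 10 cm plants.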

[2] = system: corn (Zea mays); test: as above
Method in brief: as §1

[3] = system: giant foxtail (Setaria faberii); test: as above
Method in brief: as §1

[4] = system: large (Lg) crabgrass (Digitaria sanguinalis); test: as above
Method in brief: as §1

[5] = system: morningglory (Ipomoea spp.); test: as above
Method in brief: as §1

[6] = system: pigweed (Amaranthus retroflexus); test: as above
Method in brief: as §1

[7] = system: velvetleaf (Abutilon theophrasti); test: as above
Method in brief: as §1

[8] = system: wheat (Triticum aestivum); test: as above
Method in brief: as §1

[9] = system: blackgrass (Alopecurus myosuroides); test: Test C pre-/postemergence greenhouse test, plant response rating 0-100
Method in brief: (§2)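 Plants were scored visually against controls 13–15 days after treatment on a 0–100 scale, 100 meaning complete control. Test chemicals, formulated in surfactant-containing non-phytotoxic solvent, went preemergence onto seeds in loam–sand blend or postemergence onto 1- to 4-leaf plants (2–18 cm) grown in peat-based mix.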

[10] = system: ragweed (common ragweed, Ambrosia elatior); test: as above
Method in brief: as §2

[11] = system: chickweed (common chickweed, Stellaria media); test: Test C postemergence greenhouse test, plant response rating 0-100; settings: for Plant response rating, Chickweed: scale 0 to 100
Source text: (§3) At the same time, plants selected from these crop and weed species and also winter barley (Hordeum vulgare), bermudagrass (Cynodon dactylon), downy bromegrass (Bromus tectorum), canarygrass (Phalaris minor), cocklebur (common cocklebur, Xanthium strumarium), woolly cupgrass (Eriochloa villosa), deadnettle (henbit deadnettle, Lamium amplexicaule), green foxtail (Setaria viridis), goosegrass (Eleusine indica), surinam grass (Brachiaria decumbens), windgrass (Apera spica-venti), chickweed (common chickweed, Stellaria media), kochia (Kochia scoparia), and wild oat (Avena fatua), were planted in pots containing Redi-Earth® planting medium (Scotts Company, 14111 Scottslawn Road, Marysville, Ohio 43041) comprising spaghnum peat moss, vermiculite, wetting agent and starter nutrients and treated with postemergence applications of test chemicals formulated in the same manner. Plants ranged in height from 2 to 18 cm (1- to 4-leaf stage) for postemergence treatments. Treated plants and controls were maintained in a greenhouse for 13 to 15 days, after which time all species were compared to controls and visually evaluated. Plant response ratings, summarized in Table C, are based on a scale of 0 to 100 where 0 is no effect and 100 is complete control. A dash (-) response means no test result.

[12] = system: kochia (Kochia scoparia); test: as above; settings: for Plant response rating, Kochia: scale 0 to 100
Source text: as §3

[13] = system: wild oat (Avena fatua); test: as above; settings: for Plant response rating, Oat, Wild: scale 0 to 100
Source text: as §3

[14] = Postemergence, 250 g ai/ha, scale 0 to 100
[15] = Postemergence, 500 g ai/ha, scale 0 to 100

O=Cn1cc(C(=O)c2ccccc2)c(-c2cc(Cl)cc(Cl)c2)n1 [Compound 28]
65: Plant response rating, Ragweed ([10]; Preemergence, 62 g ai/ha)
75: Plant response rating, Ragweed ([10]; Preemergence, 125 g ai/ha)
70: Plant response rating, Ragweed [10, 14]
100: Plant response rating, Chickweed ([11]; 250 g ai/ha)
95: Plant response rating (0 to 100), Chickweed ([11]; 62 g ai/ha) | Plant response rating (0 to 100), Chickweed ([11]; 125 g ai/ha)
0: Plant response rating (0 to 100 scale), Barnyardgrass ([1]; Postemergence, 125 g ai/ha) | Plant response rating (0 to 100 scale), Barnyardgrass ([1]; Postemergence, 500 g ai/ha) | Barnyardgrass plant response rating (0 = no effect, 100 = complete control) ([1]; Preemergence, 125 g ai/ha) | Plant response rating (0 to 100 scale), Barnyardgrass ([1]; Preemergence, 500 g ai/ha) | Plant response rating (0 to 100 scale), Corn ([2]; Postemergence, 125 g ai/ha) | Plant response rating (0 to 100 scale), Corn ([2]; Postemergence, 500 g ai/ha) | Corn plant response rating (0 = no effect, 100 = complete control) ([2]; Preemergence, 125 g ai/ha) | Plant response rating (0 to 100 scale), Corn ([2]; Preemergence, 500 g ai/ha) | Plant response rating (0 to 100 scale), Foxtail, Giant ([3]; Postemergence, 125 g ai/ha) | Plant response rating (0 to 100 scale), Foxtail, Giant ([3]; Postemergence, 500 g ai/ha) | Foxtail, Giant plant response rating (0 = no effect, 100 = complete control) ([3]; Preemergence, 125 g ai/ha) | Plant response rating (0 to 100 scale), Foxtail, Giant ([3]; Preemergence, 500 g ai/ha) | Plant response rating (0 to 100 scale), Crabgrass, Large ([4]; Postemergence, 125 g ai/ha) | Plant response rating (0 to 100 scale), Crabgrass, Large ([4]; Postemergence, 500 g ai/ha) | Crabgrass, Large plant response rating (0 = no effect, 100 = complete control) ([4]; Preemergence, 125 g ai/ha) | Plant response rating (0 to 100 scale), Crabgrass, Large ([4]; Preemergence, 500 g ai/ha) | Plant response rating (0 to 100 scale), Morningglory ([5]; Postemergence, 125 g ai/ha) | Plant response rating (0 to 100 scale), Morningglory ([5]; Postemergence, 500 g ai/ha) | Morningglory plant response rating (0 = no effect, 100 = complete control) ([5]; Preemergence, 125 g ai/ha) | Plant response rating (0 to 100 scale), Morningglory ([5]; Preemergence, 500 g ai/ha) | Plant response rating (0 to 100 scale), Wheat ([8]; Postemergence, 125 g ai/ha) | Plant response rating (0 to 100 scale), Wheat ([8]; Postemergence, 500 g ai/ha) | Wheat plant response rating (0 = no effect, 100 = complete control) ([8]; Preemergence, 125 g ai/ha) | Plant response rating (0 to 100 scale), Wheat ([8]; Preemergence, 500 g ai/ha) | Plant response rating (0 to 100), Blackgrass ([9]; Postemergence, 62 g ai/ha) | Plant response rating, Blackgrass ([9]; Postemergence, 125 g ai/ha, scale 0 to 100) | Plant response rating, Blackgrass [9, 14] | Plant response rating, Blackgrass [9, 15] | Plant response rating, Blackgrass ([9]; Preemergence, 62 g ai/ha) | Plant response rating, Blackgrass ([9]; Preemergence, 125 g ai/ha) | Plant response rating (0 to 100), Oat, Wild ([13]; 62 g ai/ha) | Plant response rating (0 to 100), Oat, Wild ([13]; 125 g ai/ha) | Plant response rating, Oat, Wild ([13]; 250 g ai/ha) | Plant response rating, Oat, Wild ([13]; 500 g ai/ha)
45: Plant response rating (0 to 100), Ragweed ([10]; Postemergence, 125 g ai/ha)
20: Velvetleaf plant response rating (0 = no effect, 100 = complete control) ([7]; Preemergence, 125 g ai/ha)
85: Plant response rating, Ragweed [10, 15] | Plant response rating (0 to 100), Kochia ([12]; 125 g ai/ha) | Plant response rating, Kochia ([12]; 250 g ai/ha)
98: Plant response rating, Ragweed ([10]; Preemergence, 500 g ai/ha) | Plant response rating, Chickweed ([11]; 500 g ai/ha)
90: Plant response rating (0 to 100 scale), Pigweed ([6]; Postemergence, 500 g ai/ha) | Plant response rating (0 to 100 scale), Pigweed ([6]; Preemergence, 500 g ai/ha) | Plant response rating (0 to 100 scale), Velvetleaf ([7]; Postemergence, 500 g ai/ha) | Plant response rating, Ragweed ([10]; Preemergence, 250 g ai/ha) | Plant response rating, Kochia ([12]; 500 g ai/ha)
80: Plant response rating (0 to 100 scale), Pigweed ([6]; Postemergence, 125 g ai/ha) | Pigweed plant response rating (0 = no effect, 100 = complete control) ([6]; Preemergence, 125 g ai/ha) | Plant response rating (0 to 100 scale), Velvetleaf ([7]; Postemergence, 125 g ai/ha) | Plant response rating (0 to 100), Kochia ([12]; 62 g ai/ha)
5: Plant response rating, Blackgrass ([9]; Preemergence, 250 g ai/ha) | Plant response rating, Blackgrass ([9]; Preemergence, 500 g ai/ha)
60: Plant response rating (0 to 100 scale), Velvetleaf ([7]; Preemergence, 500 g ai/ha) | Plant response rating (0 to 100), Ragweed ([10]; Postemergence, 62 g ai/ha)
